In PubChem BioAssay AID1996:
In brackets after ≈: the same amount, converted by molar mass.

Details: buffer; pH 7.4; 200.0 µM
Molecule `COc1cc(NC(=S)N2CCN(CCO)CC2)cc(OC)c1` has a solubility kinetic of over 48.8 µg/mL.
`Cc1ccc(S(=O)(=O)N2CCCCC2)cc1NC(=O)CN1C(=O)c2ccccc2S1(=O)=O` showed a solubility kinetic of 20.7 µg/mL (≈ 43.3 µM).
For `Cc1ccc(NC(=O)c2ccsc2)cc1NS(C)(=O)=O`, the solubility kinetic was over 46.6 µg/mL.
`CSc1nnc(C)c(=O)n1COC(=O)c1ccccc1` gave a solubility kinetic of over 43.7 µg/mL.
Work on `Cc1ccc(-c2nc(=O)[nH]c3ccc(Br)cc23)cc1` yielded a solubility kinetic of 6.7 µg/mL (≈ 21.3 µM).
For `Cc1nc(N)[nH]c(=O)c1Oc1cccc(C(F)(F)F)c1`, the solubility kinetic was 35.6 µg/mL (≈ 125 µM).
Work on `Cc1sc2nc(C(C)C)nc(SCC(=O)NC3CC3)c2c1C` yielded a solubility kinetic of 1.5 µg/mL (≈ 4.47 µM).
For `O=S(=O)(NCc1cccs1)c1ccc(Br)cc1`, the solubility kinetic was 11.6 µg/mL (≈ 34.9 µM).
`CC(c1ccccc1)N1CC(C(=O)Nc2nccs2)CC1=O` (configuration not stated) showed a solubility kinetic of over 47.3 µg/mL.
`Nc1cc([N+](=O)[O-])cc2oc(-c3ccccc3)cc12` showed a solubility kinetic of under 0.3 µg/mL.
With `CC1CCCC(NC(=O)C2CC(=O)N(Cc3ccccc3)C2)C1C` (configuration not stated) the solubility kinetic was 37.4 µg/mL (≈ 114 µM).
`Cn1nccc1C(=O)N1CCC(Cc2ccccc2)CC1` showed a solubility kinetic of over 42.5 µg/mL.
`CC(NC(=O)c1ccc(F)cc1)C(=O)NC1=NCCS1` (configuration not stated) showed a solubility kinetic of over 44.3 µg/mL.
`Cc1c(C=C2C(=O)NC(=O)NC2=O)c(=O)n(-c2ccccc2)n1C` showed a solubility kinetic of over 48.9 µg/mL.
With `Cc1cccc(C)c1NC1=NCCCCC1` the solubility kinetic was over 32.4 µg/mL.
`Cc1cccc(C2NC(c3cccc(C)c3)C(C)C(=O)C2C)c1` (configuration not stated) showed a solubility kinetic of 0.8 µg/mL (≈ 2.6 µM).
Work on `O=C(COC(=O)c1cc(Cl)ccc1O)Nc1cc(C(F)(F)F)ccc1N1CCOCC1` yielded a solubility kinetic of 3.5 µg/mL (≈ 7.63 µM).
Work on `COc1ccc(NC(=O)CCC(=O)c2cccs2)cc1Cl` yielded a solubility kinetic of 6.5 µg/mL (≈ 20.1 µM).
For `CCCCCC(=O)NNC1CC(=O)N(c2ccccc2)C1=O` (configuration not stated), the solubility kinetic was over 45.5 µg/mL.
With `Cc1nc(CN(C)Cc2nc(Cc3cccc(F)c3)no2)cs1` the solubility kinetic was over 49.9 µg/mL.
In the case of `CCN(CC)C(=O)C1CCCN(C/C=C/c2ccccc2[N+](=O)[O-])C1` (configuration not stated), the solubility kinetic is reported as 41.7 µg/mL (≈ 121 µM).
`Cc1cccnc1NC(=O)c1ccc(OCc2c(C)noc2C)cc1` showed a solubility kinetic of 43.7 µg/mL (≈ 130 µM).
For `Cc1ccc2c(c1)C1C[N+](C)(CC(=O)c3ccccc3)CCC1N2C(=O)c1ccccc1Cl.[Br-]` (configuration not stated), the solubility kinetic was 78 µg/mL.
`Nc1cccc2c(=O)c3ccccc3[nH]c12` gave a solubility kinetic of 5.6 µg/mL (≈ 26.6 µM).
In the case of `CC(=O)c1c(C)[nH]c(C(=O)Nc2nccs2)c1C`, the solubility kinetic is reported as 20.8 µg/mL (≈ 79 µM).
In the case of `COc1cc(CN2CCN(Cc3cccc(OC)c3OC)CC2)cc(OC)c1`, the solubility kinetic is reported as 47.8 µg/mL (≈ 124 µM).
With `Cc1cc(C)cc(NC(=O)C(=S)NCc2ccccc2)c1` the solubility kinetic was under 0.3 µg/mL.
Molecule `O=[N+]([O-])c1ccc(Sc2ncc3ccccn23)nc1` has a solubility kinetic of 20.6 µg/mL (≈ 75.7 µM).
Molecule `CC(=O)c1ccc(NC(=S)NN2C(C)CCCC2C)cc1` (configuration not stated) has a solubility kinetic of over 45.8 µg/mL.
Molecule `COc1cccc(/C=C/c2ccc3cccc(O)c3n2)c1` has a solubility kinetic of 0.7 µg/mL (≈ 2.52 µM).
Molecule `CC(=O)c1ccc(Nc2ccc([N+](=O)[O-])c3nonc23)cc1` has a solubility kinetic of 4.2 µg/mL (≈ 14.1 µM).
In the case of `CCOc1ccccc1NC(=O)c1cnccn1`, the solubility kinetic is reported as over 36.5 µg/mL.
`NC(=O)c1ccccc1NC(=O)CN1CCCCCC1` gave a solubility kinetic of over 41.3 µg/mL.
Work on `Cc1ccc(OCC(=O)NCCCNC(=O)COc2ccc(C)cc2)cc1` yielded a solubility kinetic of 15.1 µg/mL (≈ 40.8 µM).
With `CCCCOc1cc(CC2CNC(=O)N2)ccc1OC` (configuration not stated) the solubility kinetic was over 41.8 µg/mL.
`Cc1ccc(S(=O)(=O)N2CCN(C(C)C(=O)NCC(C)c3ccccc3)CC2)cc1` (configuration not stated) showed a solubility kinetic of 58.2 µg/mL (≈ 135 µM).
With `CCCCNC(=O)c1ccc(CS(=O)(=O)c2ccc(C)cc2)o1` the solubility kinetic was over 50.3 µg/mL.
With `COc1ccc(C(=O)C2CCCN(C(=O)c3cnsn3)C2)c(C)c1` (configuration not stated) the solubility kinetic was 40 µg/mL (≈ 116 µM).
`C=CCNC(=S)Nc1ccc(Cl)cc1F` gave a solubility kinetic of over 36.7 µg/mL.
`O=C1NC(c2ccc(Cl)cc2)Oc2ccccc21` (configuration not stated) showed a solubility kinetic of 1.7 µg/mL (≈ 6.55 µM).
With `COC(=O)c1ccc(CNC(=O)[C@@H]2CCCN2S(=O)(=O)c2ccccc2F)cc1` the solubility kinetic was 60.7 µg/mL (≈ 144 µM).
In the case of `O=C(c1ccccc1F)N1CCC2(CC1)OCCO2`, the solubility kinetic is reported as over 39.8 µg/mL.
With `Cc1cc(C)n(-c2ccc(C(=O)N3CC(C)OC(C)C3)cc2)n1` (configuration not stated) the solubility kinetic was over 47 µg/mL.
In the case of `COc1cc(/C=C2\SC(N)=NC2=O)ccc1O`, the solubility kinetic is reported as 34.5 µg/mL (≈ 138 µM).
For `Cc1ccc(-c2nc(N3CCN(C)CC3)c3ccccc3n2)cc1.Cl`, the solubility kinetic was 49 µg/mL.
Molecule `Cn1c(SCc2ccc(F)cc2)nnc1-c1ccncc1` has a solubility kinetic of over 45.1 µg/mL.
With `Cc1ccc(/C=C/C(=O)NCCc2cccc(Cl)c2)o1` the solubility kinetic was 5.1 µg/mL (≈ 17.6 µM).
